Like-named read-outs stand apart in the source and are kept apart here.

Series [1] is described as follows: Long term stability in buffer with 2.5% DMSO (LC-MS). In kind it is physicochemical. The following applies: 20 mM KPO4, 0.1 mM ZnCl2, pH 7.0 + 2.5% DMSO; LC-MS 254 nm. The source says:
Reagents, reactants, solvents and drying agents for synthesis, work-up and purification were purchased from commercial vendors (Sigma-Aldrich, VWR, Merck, Fluorochem, Thermo Fisher Scientific, Solveco), and if not stated otherwise they were used without further purification. Reactions and long term stability of the final compounds in buffer were monitored using LC-MS (Agilent 1260 Infinity II) equipped with an ESI-Q detector (Infinitylab LC-MSD) using Agilent InfinityLab Poroshell 120 C18 columns (2.7 μm, ϕ 2.1 mm L 50 mm or 2.7 μm, ϕ 4.6 mm L 50 mm). The intermediates were purified using VWR silica gel 60 (40–63 μm) with a Biotage Isolera One flash column chromatography instrument. The final products were purified with preparative RP-HPLC (VWR LaPrep P110) with single wavelength detection (254 nm), using a Kinetex C8 column (5 μm, 100 Å, ϕ 21.2 mm L 250 mm) and gradients of CH3CN/H2O + 0.1% formic acid as the mobile phase at a 10 mL/min flow rate. Analytical HPLC data were acquired on a VWR LaChrome ELITE system using an ACE3 C8 (3 μm, 300 Å, ϕ 3.0 mm L 100 mm) or a Kinetex C18 columns (5 μm, 100 Å, ϕ 3.0 mm L 150 mm). NMR spectra were recorded on a Varian Agilent MR400-DD2 400 MHz spectrometer equipped with a OneNMR probe, Bruker Avance Neo 500 MHz spectrometer equipped with a cryogenic TXO probe, or a Bruker Avance Neo 600 MHz spectrometer equipped with a TCI cryogenic probe. The chemical shifts are reported using the residual solvent signal as an indirect reference to TMS.
4. Long term stability of the final compounds in buffer with 2.5% DMSO
The long term stability of the final compounds in buffer (20 mM KPO4, 0.1 mM ZnCl2, pH 7.0 + 2.5% DMSO) were monitored using LC-MS (Agilent 1260 Infinity II) equipped with an ESI-Q detector (Infinitylab LC-MSD) using Agilent InfinityLab Poroshell 120 C18 column (2.7 μm, ϕ 4.6 mm L 50 mm) at 254 nm with a 7 min long gradient method (5% to 95% CH3CN) of CH3CN/H2O + 0.1% formic acid as the mobile phase at a 1.0 mL/min flow rate. The samples were measured right after dissolving them in buffer, and after 1 month of keeping the same samples dissolved in the same buffer. The main peaks (> 95%) and impurities with > 1% are […]
Figure S14. Compound 5a right after dissolving it in buffer.
Figure S15. Compound 5a kept in buffer for 1 month. […]

A further series deals with NDM-1 (Klebsiella pneumoniae, UniProt C7C422). Briefly: Enzymatic metallo-β-lactamase assay on purified NDM-1. In kind it is biochemical. The method, then:
(§1) A few inhibitors were tested up to 1600 μM to ensure nearly complete inhibition. Solutions of 100 μL consisting of buffer, purified enzyme (1 nM for GIM-1 and VIM-2, 5 nM for NDM-1), inhibitor and reporter substrate nitrocefin (15 μM for VIM-2, 2 μM for GIM-1) or imipenem (30 μM for NDM-1) were incubated in triplicates on a 96 well plate for 5 min at 25 °C. Buffer solution consisted of 50 mM HEPES pH 7.2, 50 μM ZnSO4 and 0.4 mg/ml bovine serum albumine. Inhibitors were dissolved in DMSO but diluted to assure <2% DMSO in measured assay. Absorbance was measured at 482 nm (nitrocefin) and 300 nm (imipenem) on a SpectraMax M4 spectrophotometer. The initial velocity at each inhibitor concentration was analyzed in GraphPad Prism v9.3.1 and fitted to dose-response curves by non-linear regression (log [inhibitor] vs response) used to calculate IC50 (Supplementary Tables S2–5).

A short description of a further series: MTT cytotoxicity assay. Type of series: cell-based. As to conditions: human, HepG2 cells. The method, then: Cytotoxic activity of the compounds was measured through the MTT colorimetric assay as previously described[60] using the Colorimetric (MTT) Kit for Cell Survival and Proliferation (Merck/Millipore; Darmstadt, Germany). HepG2 cells (human hepatocellular carcinoma cell line) were kept in penicillin/streptomycin-free medium overnight and then they were treated with the compounds for 24 h. Subsequently, the MTT reagent was added to the cells and after 3 h of incubation, MTT-derived formazan crystals were solubilized in acidified isopropanol (0.1 mL isopropanol with 0.04 N HCl). Absorbance was measured with multiscan spectrophotometer (Thermo Fisher Scientific) at 530 nm test and 630 nm reference wavelengths. Cell viability was expressed as the percentage of viable, untreated cells. CC50 values were determined with GraphPad Prism software (v9.3.1) and adjusted to dose-response curves by non-linear regression (Supplementary Table S7).
8. Cytotoxocity against HepG2 cells
Table S7. CC50 values and viability curves of metallo-β-lactamase inhibitors tested on HepG2 […]
cells. […]
range. Data are shown as % via bility values ± SEM (n=4). Calculations were done using […]
Inhibitors CC50 (μM) HepG2 […]

Another series has as its target GIM-1 (Pseudomonas aeruginosa, UniProt Q704V1). Briefly: Enzymatic metallo-β-lactamase assay on purified GIM-1. Type of series: biochemical. The method, then: as §1
The target of another series is VIM-2 (Escherichia coli, UniProt Q5U7L7). Briefly: Enzymatic metallo-β-lactamase assay on purified VIM-2. In kind it is biochemical. The method, then: as §1
The next series deals with T1, 15N-labeled NDM-1 (Klebsiella pneumoniae, UniProt C7C422).
T1 construct: made in house
The series can be described thus: 1H,15N-HSQC titration of NDM-1. Type of series: binding. The following applies: 10 equivalents of compound, 600 MHz, pH 7.0, 25 °C. The method, then:
The ^1H, ^15N-HSQC spectra for the titration experiments were recorded on a Bruker Avance Neo 600 MHz spectrometer equipped with a 5 mm TCI cryogenic probe at 25 °C. The U-[^15N]-labeled VIM-2 was prepared in a buffer of 20 mM KPO4, 0.1 mM ZnCl2, at pH 7.0, containing 85% H2O/15% D2O at a concentration of 0.25 mM. The U-[^15N]-labeled NDM-1 was used in a buffer of 20 mM HEPES, 0.1 mM ZnCl2, at pH 7.0, containing 85% H2O/15% D2O at a concentration of 0.25 mM. The ligands 5d, 5g, 5i, 5j (for VIM-2 titrations) and 5 f (for NDM-1 titration) were dissolved in the same buffer as the corresponding enzymes. Spectra were recorded using solvent suppression, 1024 points in f1, 16 transients, 512 increments in f2 and a relaxation delay of 0.2 s. The titrations were carried out with 0, 0.25, 0.50, 1.00, 1.50, 2.25, 3.00, 4.00, 5.00, 7.00, 10.0 equivalents of the inhibitors. […]
Chemical shift perturbation values (CSP, ΔδNH) were calculated as the weighted average of
the chemical shift changes in f1 (ΔδN) and f2 (ΔδH) dimensions using the following equation 8:
∆δ = √∆δ 2 + ( N ); R = 6.5 […]

Sequence of NDM-1 (C7C422 29-270, looked up, species assumed): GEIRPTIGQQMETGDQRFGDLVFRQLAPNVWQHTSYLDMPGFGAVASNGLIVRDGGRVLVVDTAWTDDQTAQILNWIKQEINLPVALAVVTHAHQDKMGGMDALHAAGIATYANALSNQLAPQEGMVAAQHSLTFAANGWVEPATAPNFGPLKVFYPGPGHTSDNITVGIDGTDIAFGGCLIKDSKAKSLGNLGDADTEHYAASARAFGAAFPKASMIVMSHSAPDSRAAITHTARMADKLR
Sequence of GIM-1 (Q704V1 entry or part of it): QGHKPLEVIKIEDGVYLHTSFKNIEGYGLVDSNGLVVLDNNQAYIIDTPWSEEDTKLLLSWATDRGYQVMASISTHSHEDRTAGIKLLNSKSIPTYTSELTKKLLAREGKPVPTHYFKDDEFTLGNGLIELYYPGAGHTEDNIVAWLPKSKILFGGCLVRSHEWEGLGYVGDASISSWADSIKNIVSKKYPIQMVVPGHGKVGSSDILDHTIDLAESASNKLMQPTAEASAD
T1 sequence (C7C422 29-270, looked up): as the sequence (C7C422 29-270, looked up, species assumed) above

As for `O=C(NC(c1ccccc1O)P(=O)(O)O)c1csc2c1CCCC2` (stereo not shown) [5f], the “main peak Area% kept in buffer for 1 month” value in series [1] came to 95.90%. In addition, the “main peak Area% right after dissolving in buffer” value in series [1] was determined as 95.67%. For the same compound, the Ki at NDM-1 (approximated from Dixon plots (1/v vs [I]) at one constant substrate concentration, ± SE, read-out: Estimated inhibition constant Ki NDM-1) was 128 ± 58 µM; at VIM-2 (approximated from Dixon plots (1/v vs [I]) at one constant substrate concentration, ± SE, read-out: Estimated inhibition constant Ki VIM-2), 40 ± 2 µM. In addition, the “logIC50 NDM-1” value on NDM-1 (log of IC50, ± SEM of logIC50) is 1.48 ± 0.03 log10(IC50/μM). Moreover, the IC50 against NDM-1 (purified enzyme 5 nM, imipenem 30 μM, pH 7.2, 25 °C) is 30 µM; against GIM-1 (purified enzyme 1 nM, nitrocefin 2 μM, pH 7.2, 25 °C), 52 µM; against VIM-2 (purified enzyme 1 nM, nitrocefin 15 μM, pH 7.2, 25 °C), 48 µM. The CC50 at 24 h in “MTT cytotoxicity assay” (HepG2, MTT, read-out: CC50 (in viability curve)) was found to be 4800 µM; in the series “MTT cytotoxicity assay” (MTT, 0.0025 mM - 1mM concentration range, read-out: Cytotoxicity CC50 HepG2), 4800 µM. For the same compound, the “logIC50 GIM-1” value at GIM-1 (log of IC50, ± SEM of logIC50) was 1.71 ± 0.10 μM. Further, the “logIC50 VIM-2” value at VIM-2 (log of IC50, ± SEM of logIC50) was 1.68 ± 0.05 μM. The “Mean chemical shift perturbation, NDM-1” value at 15N-labeled NDM-1 turned out to be 0.05 ppm.

(Values after paper PMC12009420, “Dynamically chiral phosphonic acid-type metallo-β-lactamase inhibitors” (Communications Chemistry, 2025).)
